Experimental findings from BindingDB's records for doi:10.1016/j.bmcl.2015.06.011 (Al-Zaytoonah University of Jordan, 2015) are described below.

Structures are written as SMILES.

Assay [1] is described as follows: Inhibition of PI3Kalpha H1047R mutant in human HCT116 cells assessed as cell growth inhibition after 24 hrs by MTT assay. (Formazan colour is commonly taken as a measure of viable cells.)
A short description of assay [2]: Inhibition of PI3Kalpha in human HCT116 cells assessed as cell growth inhibition after 24 hrs by MTT assay.

One may read the IC50 as the midpoint of a concentration-inhibition curve.

Consider `O=C(c1ccccc1)C(O)c1ccccc1` (stereo not drawn), for which the IC50 in assay [1] and in assay [2] was 2120 µM each time.

Turning to `O=C(OC(C(=O)c1ccccc1)c1ccccc1)c1cccc(F)c1` (stereo not drawn), the half-maximal inhibitory concentration (IC50) in assay [1] and in assay [2] was 970 µM each time.

On to `O=C(OC(C(=O)c1ccccc1)c1ccccc1)c1ccc(Cl)cc1` (stereo not drawn), for which the IC50 in assay [1] and in assay [2] was 730 µM in each case.

Take `O=C(OC(C(=O)c1ccccc1)c1ccccc1)c1ccc([N+](=O)[O-])cc1` (stereo not drawn): the IC50 in assay [1] and in assay [2] was 880 µM each time.

On to `O=C(OC(C(=O)c1ccccc1)c1ccccc1)c1ccccc1F` (stereo not drawn), for which the IC50 in assay [1] and in assay [2] was 910 µM each time.

With `O=C(OC(C(=O)c1ccccc1)c1ccccc1)c1ccccc1` (stereo not drawn), the IC50 in assay [1] and in assay [2] was 2660 µM each time.

For `COc1ccc(C(=O)C(O)c2ccc(OC)cc2)cc1` (stereo not drawn) [2-hydroxy-1,2-bis(4-methoxyphenyl)ethan-1-one], the IC50 in assay [1] and in assay [2] was 1170 µM each time.

For the compound `COc1ccc(C(=O)C(OC(=O)c2ccc(F)cc2)c2ccc(OC)cc2)cc1` (stereo not drawn), the IC50 in assay [1] and in assay [2] was 2820 µM throughout.

As for `O=C(OC(C(=O)c1ccccc1)c1ccccc1)c1ccc(F)cc1` (stereo not drawn), the IC50 in assay [1] and in assay [2] was 1290 µM in each case.
